Calls of active or inactive are those of the source.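 Rule for the calls: active = less UV crosslinking of translation factor eIF4H to capped RNA at 100 µM than solvent-only control; inactive = the rest.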

The test addresses Eukaryotic translation initiation factor 4H (Homo sapiens) (UniProt Q15056). Nature of the test: eIF4H binding to capped mRNA, inhibitors, SAR follow-up, orthogonal assay for translation initiation inhibitor project, biochemical, UV crosslinking, autoradiography (AID 449744).
As for `O=C(Nc1ccccc1)C1CCN(C(=O)c2cccs2)CC1`, the outcome was inactive. In the case of `CCn1c(=O)n(CC)c2cc(NC(=O)C(C)c3ccccc3)c(Br)cc21` (configuration not stated), the result was inactive.

As to `COc1cc([N+](=O)[O-])ccc1NC(=O)COC(=O)c1ccc2c(c1)NC(=O)CS2`, the outcome was inactive.

For `COc1ccc(N2Cc3cccc(C(=O)NC(C)CCc4ccco4)c3C2=O)cc1` (configuration not stated), the result was inactive. Under `CC(C)c1ccc(OC(=O)c2cccc(S(=O)(=O)N3CCN(C)CC3)c2)cc1` stands “inactive”. Turning to `Cc1ccc(NC(=O)CN2C(=O)N/C(=C/c3ccccc3OCc3cccc(C(=O)O)c3)C2=O)cc1`, the result was inactive. Under `COc1cc(C=NNC(=O)c2ccccc2O)ccc1OCC(=O)Nc1ccccc1` stands “inactive”; under `CCN1CCN(S(=O)(=O)c2ccc(Cl)c(C(=O)Nc3ccc(C(=O)N(CC)CC)cc3)c2)CC1`, “inactive”; under `Cc1ccc(OC(C)C(=O)Nc2ccc3c(c2)n(C)c(=O)n3C)c(C)c1` (configuration not stated), “inactive”. For `CCOC(=O)N1CCC(NC(=O)c2cccc3c2C(=O)N(c2ccc(OC)cc2)C3)CC1`, the outcome was inactive. Under `Cc1ccc(NC(=O)C2CCN(C(=O)c3cccs3)CC2)c(C)c1` stands “inactive”; under `O=C(Nc1cccc2ncccc12)c1ccccc1Cl`, “inactive”. With `CCc1nnc(NC(=O)CSc2ccc(-c3ccco3)nn2)s1`, the result was inactive. The value for `CCOC(=O)c1ccc2c(c1)N(C)C(=O)c1ccccc1S2` was “inactive”; that for `COC(=O)c1c(Sc2ccccc2)c2ccccc2n1C` was “inactive”. The value for `O=C(Nc1cccc2ncccc12)c1ccc(Cl)cc1` was “inactive”; that for `COc1cc([N+](=O)[O-])ccc1NC(=O)COC(=O)c1ccc(NC(N)=O)cc1` was “inactive”; that for `COc1cc(/C=N/NC(=O)c2ccccc2)ccc1OCC(=O)Nc1ccc([N+](=O)[O-])cc1` was “inactive”. The value for `CCOC(=O)c1ccc2c(c1)N(CC)C(=O)c1ccccc1S2` was “inactive”; that for `COc1ccc(N2Cc3cccc(C(=O)N4CCN(C(=O)c5ccco5)CC4)c3C2=O)cc1` was “inactive”; that for `O=C(COc1ccc(C=NNC(=O)c2ccc(O)cc2)cc1)Nc1ccc([N+](=O)[O-])cc1` was “inactive”. For `CC(C)NC(=O)C(C)N1CCN(S(=O)(=O)c2ccc3ccccc3c2)CC1` (configuration not stated), the outcome was inactive.

Values taken from PubChem BioAssay AID449744 (Sanford-Burnham Center for Chemical Genomics, 2010).
